Reference: US8071631B2, “Small molecule inhibitors of kynurenine-3-monooxygenase” (The J. David Gladstone Institutes, A Testamentary Trust …, priority 2006, dated 2011)

Test system: kynurenine-3-monooxygenase (KMO)
Test: KMO inhibition, radiometric assay per Erickson et al. (release of 3H2O from L-[3,5-3H]-kynurenine)
Format: biochemical
Conditions: compound at 10 μM
Procedure: The KMO inhibiting activities of the compounds of the present invention were evaluated using standard methods. See Erickson et al., A Radiometric Assay for Kynurenine 3-Hydroxylase Based on the Release of ^3H2O During Hydroxylation of L-[3,5-^3H]-Kynurenine, Anal. Biochem. 1992, 205, 257-262, the disclosure of which is hereby incorporated by reference.
The IC50 value is the half maximal inhibitory concentration and represents the concentration of an inhibitor that is required for 50% inhibition of an enzyme activity and the percent inhibition measures the amount of enzyme activity inhibited at a given concentration of compound. If the administered compound is a prodrug then the prodrug may not inhibit KMO until it has metabolized appropriately.

Compound	% inhibition at 10 μM [%]
COc1ccc(S(=O)(=O)Nc2ccc(-c3ccccc3)cn2)cc1OC [Compound A25, 3,4-dimethoxy-N-[5-(phenyl)-pyridine-2-yl]benzenesulfonamide]	24.8
COc1ccc(S(=O)(=O)Nc2nsc(-c3ccc(Cl)cc3)n2)cc1OC [Compound A19, 3,4-dimethoxy-N-[5-(4-chlorophenyl)-1,2,4-thiadiazole-3-yl]benzenesulfonamide]	68.6
Cc1ccc(S(=O)(=O)Nc2cc(-c3ccccc3)no2)cc1 [Compound A14, 4-methyl-N-[3-(phenyl)-isoxazol-5-yl]benzenesulfonamide]	30.74
COc1ccc(S(=O)(=O)Nc2nc(-c3ccccc3)ns2)cc1OC [Compound A1, 3,4-dimethoxy-N-[3-(phenyl)-1,2,4-thiadiazol-5-yl]benzenesulfonamide]	73.61
COc1ccc(S(=O)(=O)Nc2nnc(-c3ccccc3)s2)cc1OC [Compound A5, 3,4-dimethoxy-N-[5-(phenyl)-1,3,4-thiadiazol-2-yl]benzenesulfonamide]	60.03
COc1ccc(-c2cnc(NS(=O)(=O)c3ccc(OC)c(OC)c3)nc2)cc1 [Compound A23, 3,4-dimethoxy-N-[5-(4-methoxyphenyl)-pyrimidine-2-yl]benzenesulfonamide]	17.5
COc1ccc(S(=O)(=O)[N-]c2cccc(-c3ccccc3)c2)cc1OC.[K+] [Compound A22, Potassium 3,4-dimethoxy-N-[biphenyl-3-yl]benzenesulfonamide]	19.57
COc1ccc(S(=O)(=O)Nc2cc(-c3ccccc3)no2)cc1OC [Compound A13, 3,4-dimethoxy-N-[3-(phenyl)-isoxazol-5-yl]benzenesulfonamide]	17.82
Cc1ccc(S(=O)(=O)Nc2nc(-c3ccccc3)ns2)cc1 [Compound A2, 4-methyl-N-[3-(phenyl)-1,2,4-thiadiazol-5-yl]benzenesulfonamide]	77.9
Cc1ccc(S(=O)(=O)Nc2nnc(-c3ccccc3)s2)cc1 [Compound A6, 4-methyl-N-[5-(phenyl)-1,3,4-thiadiazol-2-yl]benzenesulfonamide]	71.59
